Measured values published in patent US9963474B2, “Mitochondria-targeted dicarbonyl sequestering compounds” (MEDICAL RESEARCH COUNCIL, priority 2013, dated 2018).

What was measured:
[1] = Stability of compounds assessed by RP-HPLC; type: physicochemical; conditions: 37° C., one week, RP-HPLC
Procedure: (§1) RP-HPLC was performed using a Gilson 321 pump with a C18 column (Jupiter 300 Å, Phenomenex) with a Widepore C18 guard column (Phenomenex). Samples (1 ml) were injected through a 0.22 μm PVDF filter (Millex, Millipore). HPLC buffer A [0.1% TFA in water] and HPLC buffer B (90% acetonitrile and 0.1% TFA) were used and a gradient was run at 1 ml/min at room temperature as follows: 0-2 min—5% B; 2-17 min—5-100% B; 17-19 min—100% B; 19-22 min—100-5% B. Peaks were detected by absorbance at 220 nm (UV/Vis 151, Gilson) and by fluorescence (excitation and emission wavelengths of 344 and 433 nm; RF-10AXL, Shimadzu). Partition coefficients between PBS and octan-1-ol were determined as previously described.
The syntheses of MitoG, its predicted quinoxaline products upon reaction with methylglyoxal and glyoxal, and their deuterated versions are summarized in FIG. 2. As expected, the spectrum of MitoG was a summation of those of the phenylenediamine, hexyloxyphenylenediamine (HP), and a simple alkylTPP salt.
The expected products of the reaction of MitoG with methylglyoxal (MQE) and glyoxal (QE) were synthesized and have UV/Vis absorption spectra distinct from that of MitoG (FIG. 3B). Both QE and MQE were fluorescent, while MitoG was not (FIG. 3C). The three compounds were resolved by RP-HPLC (FIG. 3D) although the MQE regioisomers (MQE1, MQE2; FIG. 1B) were not distinguished. Both MQE and QE were stable after one week at 37° C. as assessed by RP-HPLC (data not shown). It was concluded that MitoG is sufficiently stable for biological experiments involving trapping of glyoxal and methylglyoxal within mitochondria in cells and in vivo, and the reaction products MQE and QE were both robustly stable for chemical isolation and subsequent LC-MS/MS analyses.

[2] = Partition coefficients between PBS and octan-1-ol; type: physicochemical; conditions: means ± SE of 3 determinations
Procedure: as §1

[3] = 25° C., literature [49]; cited from earlier work

SMILES | stability after one week [1] | Partition coefficient [2] | logD ([2]; octan-1-ol/PBS, read-out: Partition coefficient (converted)) | rate constant for reaction with methylglyoxal, reported value [3] [M⁻¹ s⁻¹]
Cc1cnc2cc(OCCCCCC[P+](c3ccccc3)(c3ccccc3)c3ccccc3)ccc2n1.O=C([O-])C(F)(F)F [MQE, (6-(6-(2-Methyl-quinoxalinyloxy))hexyl)triphenylphosphonium trifluoroacetate] | stable | 12.3 ± 0.5 |  | 
O=C([O-])C(F)(F)F.c1ccc([P+](CCCCCCOc2ccc3nccnc3c2)(c2ccccc2)c2ccccc2)cc1 [QE, (6-(6-Quinoxalinyloxy)hexyl)triphenylphosphonium trifluoroacetate] | stable |  | 1.13 | 
Nc1ccccc1N [o-phenylenediamine] |  |  |  | 1.7 ± 0.3
